Tests used:
[1] = in vivo; cited from earlier work
[2] = system: F98 tumors; experiment: RT-PCR of RNA isolated from F98 untreated and OKN-007-treated tumors; format: in vivo, rat; conditions: OKN-007-treated vs untreated F98 tumors
Procedure: (§1) Mice and Treatments. Animal studies were conducted in accordance to the OMRF IACUC (Institutional Animal Care and Use Committee) policies, which follow NIH guidelines. For the F98 rat glioma cell implantation model, F98 cells (10^5 in 10-μ1 volume) were intracerebrally implanted with a stereotaxic device (2 mm lateral and 2 mm anterior to the bregma, and at a 3 mm depth) in a total of 15 Fischer 344 rats (male 200-250 gm). The animals were divided into two groups once tumors reached 10-20 mm^3 in volume (as determined by MRI): OKN-007 treated (n=8) and untreated (UT) (n=7) groups. Rats were treated until tumors reached 200-250 mm^3 in volume or for a total of 4-6 weeks. For the G55 GBM cell implantation model, two-month-old male nude mice (Hsd:Athymic Nude-Foxnlnu mice; Harlan Inc., Indianapolis, IN) were implanted intracerebrally with human G55 xenograft cells (1×10^6) per mL suspended in 4 μL in cell culture media of 1% agarose solution. Once tumors reached 10-15 mm^3 (determined via MRI), mice were either treated daily with OKN-007 in the drinking water (150 mg/kg; 0.20% w/v for a 20 g mouse), or every 3 days with TMZ (30 mg/kg). OKN-007 was dissolved in water and made fresh every 2 days. Water bottles were weighed, and the amount of OKN-007 consumed per mouse was determined. […] The average intake of OKN-007 was approximately 140-150 mg/kg/day/mouse. TMZ was dissolved in 5% DMSO and 5% solutol-15 in sterile saline and administered via gavage. Mice were treated until the tumors reached 100-150 mm^3 or for a total of 4-6 weeks. All groups were stratified to ensure that tumor sizes were similar before initiation of treatment.
(§2) RNA isolation and preparation. For the rat F98 glioma study, all rats were euthanized after the last MRI examination. The brain of each animal was removed, and snap frozen in liquid nitrogen, before storage in a −80° C. freezer. Total RNA from all tumor tissues from all treatment groups was purified with an RNeasy Mini Kit (Qiagen), and quantified by spectrophotometry (Nanodrop). cDNA was synthesized using SuperScript IV Reverse Transcriptase Kit (Invitrogen).

[3] = Solubility in water; format: physicochemical; conditions: free acid
[4] = system: G55 GBM cells; experiment: Cell migration in laminin-coated PDMS micro-channels; format: cell-based, human; conditions: at 22 h and 46 h following treatment
Procedure: Cell migration. For the migration study, 6-well chambers with PDMS (polydimethylsiloxane) micro-channels inside were coated with 10 μg/ml of laminin (Sigma-Aldrich) in each well. G55 cells were seeded (50×10^3) in 100 μl and supplemented with 2 ml of media in each well. The chambers were incubated in the incubator at 37° C. with 5% CO2 until scheduled time points. Some chambers were treated with OKN-007, TMZ or OKN-007 combined with TMZ (1 μL/mL media for both OKN-007 and TMZ, as well as when the two are combined), and for each treatment group one well was left untreated as a control. Images of the cells inside the microchannels were taken using an Olympus CK40 inverted microscope (Japan) under 10× and the distances of the same cells traveled were measured at 22 h, 28 h, and 46 h post seeding, cell migration speed (μm/h) was calculated. Each treatment was repeated at least 3 times and data shown as mean ±S.D.

[5] = system: rat F98 gliomas; experiment: Microarray analysis of OKN-007-treated vs untreated rat F98 gliomas; format: in vivo
Procedure: as §1, §2
Microarray analysis. The Illumina TotalPrepTM RNA Amplification Kit was used for labeling cRNA (Ambion, Austin, Tex.), as previously described (Griffins et al., 2009). Four×four treated/untreated samples were profiled using Affymetrix RaGene-1_0-st-v1 microarrays. Exon-level-summarized measures were quantile-normalized and tested for differential expression using Significance Analysis of Microarrays (SAM, [PMID: 11309499]) at a false discovery rate (FDR) <40% and […]. Functional enrichment analysis was performed using Ingenuity Pathways Analysis (IPA) (Ingenuity® Systems, world-wide-web at ingenuity.com).

[6] = system: GBM cells (LN229, U138, G55, U251, T98, LN18); experiment: Cell viability at 1 mM vs 2 mM OKN; format: cell-based, human
[7] = microarray, F98 gliomas, OKN treatment vs UT

Structure (SMILES): CC(C)(C)[N+]([O-])=Cc1ccc(S(=O)(=O)O)cc1S(=O)(=O)O [OKN-007, 2,4-disulfonyl phenyl tert-butyl nitrone]
- crossing of the blood brain barrier [1]: can readily cross the BBB
- RT-PCR fold change in gene expression ADAMTS1 ([2]; Down-regulated): 3.57 fold
- RT-PCR fold change in gene expression CD44 ([2]; Down-regulated): 3.03 fold
- RT-PCR fold change in gene expression CDH3 ([2]; Down-regulated): 3.70 fold
- RT-PCR fold change in gene expression COL1A1 ([2]; Down-regulated): 2.27 fold
- RT-PCR fold change in gene expression COL2A1 ([2]; Down-regulated): 2.33 fold
- RT-PCR fold change in gene expression COL3A1 ([2]; Down-regulated): 3.13 fold
- RT-PCR fold change in gene expression COL4A1 ([2]; Down-regulated): 2.94 fold
- RT-PCR fold change in gene expression COL4A2 ([2]; Down-regulated): 2.63 fold
- RT-PCR fold change in gene expression COL5A1 ([2]; Down-regulated): 3.33 fold
- RT-PCR fold change in gene expression COL6A1 ([2]; Down-regulated): 2.94 fold
- RT-PCR fold change in gene expression COL8A1 ([2]; Down-regulated): 2.33 fold
- RT-PCR fold change in gene expression CTGF ([2]; Down-regulated): 2.63 fold
- RT-PCR fold change in gene expression ECM1 ([2]; Down-regulated): 2.86 fold
- RT-PCR fold change in gene expression EMILIN1 ([2]; Down-regulated): 2.27 fold
- RT-PCR fold change in gene expression FN1 ([2]; Down-regulated): 2.63 fold
- RT-PCR fold change in gene expression ITAD ([2]; Down-regulated): 2.38 fold
- RT-PCR fold change in gene expression ITGA2 ([2]; Down-regulated): 3.7 fold
- RT-PCR fold change in gene expression ITGB3 ([2]; Down-regulated): 2.13 fold
- RT-PCR fold change in gene expression ITGB4 ([2]; Down-regulated): 3.70 fold
- RT-PCR fold change in gene expression LAMC1 ([2]; Down-regulated): 2.33 fold
- RT-PCR fold change in gene expression MMP1 A ([2]; Down-regulated): 4.17 fold
- RT-PCR fold change in gene expression MMP2 ([2]; Down-regulated): 2.86 fold
- RT-PCR fold change in gene expression MMP3 ([2]; Down-regulated): 3.85 fold
- RT-PCR fold change in gene expression MMP7 ([2]; Down-regulated): 2.86 fold
- RT-PCR fold change in gene expression MMP8 ([2]; Down-regulated): 3.85 fold
- RT-PCR fold change in gene expression MMP9 ([2]; Down-regulated): 7.14 fold
- RT-PCR fold change in gene expression MMP12 ([2]; Down-regulated): 16.67 fold
- RT-PCR fold change in gene expression MMP13 ([2]; Down-regulated): 50.00 fold
- RT-PCR fold change in gene expression MMP14 ([2]; Down-regulated): 2.86 fold
- RT-PCR fold change in gene expression POSTN ([2]; Down-regulated): 33.33 fold
- RT-PCR fold change in gene expression RGDC ([2]; Down-regulated): 3.45 fold
- RT-PCR fold change in gene expression SELE ([2]; Down-regulated): 2.86 fold
- RT-PCR fold change in gene expression SELL ([2]; Down-regulated): 2.13 fold
- RT-PCR fold change in gene expression SELP ([2]; Down-regulated): 2.13 fold
- RT-PCR fold change in gene expression SPP1 ([2]; Down-regulated): 8.33 fold
- RT-PCR fold change in gene expression TGFBI ([2]; Down-regulated): 2.22 fold
- RT-PCR fold change in gene expression THBS2 ([2]; Down-regulated): 3.7 fold
- RT-PCR fold change in gene expression TIMP1 ([2]; Down-regulated): 3.45 fold
- RT-PCR fold change in gene expression CDH4 ([2]; Up-regulated): 4.06 fold
- RT-PCR fold change in gene expression CNTN1 ([2]; Up-regulated): 15.03 fold
- RT-PCR fold change in gene expression HAPLN1 ([2]; Up-regulated): 3.1 fold
- RT-PCR fold change in gene expression MMP16 ([2]; Up-regulated): 4.72 fold
- RT-PCR fold change in gene expression NCAM2 ([2]; Up-regulated): 11.63 fold
- RT-PCR fold change in gene expression SGCE ([2]; Up-regulated): 8.06 fold
- RT-PCR fold change in gene expression SPOC1 ([2]; Up-regulated): 11.08 fold
- RT-PCR fold change in gene expression SYT1 ([2]; Up-regulated): 19.03 fold
- RT-PCR fold change in gene expression VTN ([2]; Up-regulated): 3.03 fold
- solubility in water [3]: greater than 1 gram/ml
- cell migration speed compared to untreated (UT) cells [4]: significantly decreased
- number of down-regulated genes with TGFβ1 as master (upstream) regulator ([5]; Upstream Regulator Analysis, IPA, rat F98 treated gliomas vs untreated tumors): 57 genes
- TGFβ1 downregulation ([5]; microarray, F98 gliomas treated with OKN-007 vs UT): ~2 fold
- number of genes upregulated [5, 7]: 3 genes
- number of genes with at least one exon significantly downregulated [5, 7]: 384 genes
- decrease in gene expression for LBP ([5]; microarray, rat F98 glioma model, treated vs untreated tumors): > 2 fold
- reduction of cell viabilities, 1 mM OKN compared to the 2 mM concentration ([6]; LN229, U138, G55 cells): just as effective
- reduction of cell viabilities, 2 mM OKN compared to the 1 mM concentration ([6]; U251, T98, LN18 cells): slightly more effective

Source: US11660280B2, “Treatment of drug resistant gliomas” (OKLAHOMA MEDICAL RESEARCH FOUNDATION, priority 2017, dated 2023)
